One data set concerns the target T1, HBV core protein (UniProt P03146).
T1 construct: fused on or other part: BODIPY-FL maleimide label on the C-terminal Cys150
The data set is described as follows: Biochemical capsid assembly assay (fluorescence quenching). Details: species or system hepatitis B virus. The conditions noted are these: read-out: Assembly Activity (IC50); BODIPY-FL labelled core protein, 300 μM NaCl, read 6 min after start. The method in brief: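 Purified E. coli-expressed HBV core protein (aa 1-149 plus Cys150), BODIPY-FL maleimide-labelled, at 1.0-2.0 μM in 50 mM HEPES pH 7.5 with 0.5% DMSO was used. Compounds were tested at 8 concentrations (0.5-log dilutions from 100, 31.6 or 10 μM). Assembly was started with NaCl ([…]), and fluorescence quenching was read after 6 min (ex 477/em 525 nm). EC50 was determined by non-linear regression.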

The test system of another data set is HBV. Nature of the data set: Determination of HBV DNA from the supernatants of HepAD38 cells (anti-HBV activity). The class given is cell-based, hepatitis B virus. The conditions noted are these: Hepatitis B virus, 144 h; HBV DNA in HepAD38 supernatant, day 6, qPCR; read-out: Cell Activity (EC50). The method in brief: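 HepAD38 cells, tetracycline withdrawn to induce HBV, treated with serial half-log compound dilutions; on day 6 HBV DNA purified from filtered supernatant and quantified by real-time PCR against HBV plasmid standards; EC50 from relative copy numbers by non-linear regression, three experiments in triplicate.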
Background: Quantitative PCR measures a nucleic acid by following its amplification.

The nature of data set [1]: Cell viability assay (AlamarBlue) in HepAD38 cells. The note with it: human. In general terms: Resazurin is reduced to fluorescent resorufin, in cell work by metabolically active cells.

Where only a bound is given, the exact number is not on record here.

T1 sequence (P03146 whole entry, looked up, the tested form may be a part): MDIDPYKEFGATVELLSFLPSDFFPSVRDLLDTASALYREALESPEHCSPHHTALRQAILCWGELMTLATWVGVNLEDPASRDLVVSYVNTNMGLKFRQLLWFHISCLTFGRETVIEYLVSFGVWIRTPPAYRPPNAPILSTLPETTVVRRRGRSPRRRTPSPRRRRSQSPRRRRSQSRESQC

Regarding `O=C(c1cc2ccc(Br)cc2[nH]1)N1CCc2[nH]ncc2C1` [Example 119, 6-bromo-2-{1H,4H,5H,6H,7H-pyrazolo[4,3-c]pyridine-5-carbonyl}-1H-indole], the IC50 (in general, the concentration that inhibits the measured activity by half) on HBV core protein was < 5 µM. For the same molecule, in the data set with HBV, the EC50 – broadly, the midpoint of the concentration-response curve – was < 1 µM. The CC50 – broadly, the concentration at which the toxic effect on the cells reaches its halfway point – at 6 days in data set [1] is > 100 µM.

In the case of `O=C(c1cc2cccc(Cl)c2[nH]1)N1CCc2[nH]ncc2C1` [Example 120, 7-chloro-2-{1H,4H,5H,6H,7H-pyrazolo[4,3-c]pyridine-5-carbonyl}-1H-indole], the 50% inhibitory concentration (IC50) on HBV core protein was in the range of 5 to 10 µM. Further, the EC50 with HBV was < 1 µM. For the same molecule, the CC50 at 6 days in data set [1] is > 100 µM.

Consider `O=C(c1cc2cc(Cl)ccc2[nH]1)N1CCc2[nH]ncc2C1` [Example 122, 5-chloro-2-{1H,4H,5H,6H,7H-pyrazolo[4,3-c]pyridine-5-carbonyl}-1H-indole], for which the IC50 at HBV core protein was < 100 µM. Besides, the EC50 with HBV was in the range of 1 to 25 µM. Moreover, in data set [1], the CC50 at 6 days is > 100 µM.

As to `O=C(c1cc2ccccc2[nH]1)N1CCc2[nH]nc(C(=O)N3CCCN3)c2C1` [Example 124, 2-[3-(pyrazolidine-1-carbonyl)-1H,4H,5H,6H,7H-pyrazolo[4,3-c]pyridine-5-carbonyl]-1H-indole], the IC50 on HBV core protein is < 5 µM. In addition, in the data set on HBV, the EC50 is < 1 µM. Further, the CC50 at 6 days in data set [1] was > 32 µM.

On to `CON(C)C(=O)c1n[nH]c2c1CN(C(=O)c1cc3c(F)ccc(F)c3[nH]1)CC2` [Example 125, 5-(4,7-difluoro-1H-indole-2-carbonyl)-N-methoxy-N-methyl-1H,4H,5H,6H,7H-pyrazolo[4,3-c]pyridine-3-carboxamide], for which the IC50 on HBV core protein was < 5 µM. In addition, the EC50 in the data set on HBV is < 1 µM. The CC50 at 6 days in data set [1] was > 100 µM.

For `CON(C)C(=O)c1n[nH]c2c1CN(C(=O)c1cc3c(Cl)cc(F)cc3[nH]1)CC2` [Example 126, 5-(4-chloro-6-fluoro-1H-indole-2-carbonyl)-N-methoxy-N-methyl-1H,4H,5H,6H,7H-pyrazolo[4,3-c]pyridine-3-carboxamide], on HBV core protein, the IC50 was < 5 µM. In addition, the EC50 with HBV is < 1 µM. In addition, in data set [1], the CC50 at 6 days was > 32 µM.

With `CON(C)C(=O)c1n[nH]c2c1CN(C(=O)c1cc3c(F)cc(F)cc3[nH]1)CC2` [Example 127, 5-(4,6-difluoro-1H-indole-2-carbonyl)-N-methoxy-N-methyl-1H4H,5H,6H,7H-pyrazolo[4,3-c]pyridine-3-carboxamide], the IC50 on HBV core protein was < 5 µM. The EC50 with HBV is < 1 µM. Besides, the CC50 at 6 days in data set [1] is > 100 µM.

Turning to `CON(C)C(=O)c1n[nH]c2c1CN(C(=O)c1cc3c(C)cc(F)cc3[nH]1)CC2` [Example 128, 5-(6-fluoro-4-methyl-1H-indole-2-carbonyl)-N-methoxy-N-methyl-1H,4H,5H,6H,7H-pyrazolo[4,3-c]pyridine-3-carboxamide], the IC50 on HBV core protein is < 5 µM. Also, the EC50 in the data set with HBV was < 1 µM. For the same molecule, the CC50 at 6 days in data set [1] worked out at 98 µM.

Take `CON(C)C(=O)c1n[nH]c2c1CN(C(=O)c1cc3c(C(F)(F)F)cccc3[nH]1)CC2` [Example 129, N-methoxy-N-methyl-5-[4-(trifluoromethyl)-1H-indole-2-carbonyl]-1H,4H,5H,6H,7H-pyrazolo[4,3-c]pyridine-3-carboxamide]: at HBV core protein, the IC50 was < 5 µM. In addition, the EC50 in the data set on HBV was < 1 µM. In addition, the CC50 at 6 days in data set [1] was > 32 µM.

As to `CON(C)C(=O)c1n[nH]c2c1CN(C(=O)c1cc3c(C)cccc3[nH]1)CC2` [Example 131, N-methoxy-N-methyl-5-(4-methyl-1H-indole-2-carbonyl)-1H,4H,5H,6H,7H-pyrazolo[4,3-c]pyridine-3-carboxamide], the IC50 on HBV core protein is < 5 µM. Further, the EC50 in the data set with HBV was < 1 µM. Further, the CC50 at 6 days in data set [1] was > 100 µM.

Regarding `O=C(c1cc2ccccc2[nH]1)N1CCc2[nH]nc(C(=O)N3CCCO3)c2C1` [Example 133, 2-[3-(1,2-oxazolidine-2-carbonyl)-1H,4H,5H,6H,7H-pyrazolo[4,3-c]pyridine-5-carbonyl]-1H-indole], the IC50 on HBV core protein is < 5 µM. Further, in the data set on HBV, the EC50 was < 100 µM. The 50% cytotoxic concentration (CC50) at 6 days in data set [1] is > 100 µM.

Turning to `Cc1cc(F)cc2[nH]c(C(=O)N3CCc4[nH]ncc4C3)cc12` [Example 135, 6-fluoro-4-methyl-2-{1H,4H,5H,6H,7H-pyrazolo[4,3-c]pyridine-5-carbonyl}-1H-indole], at HBV core protein, the IC50 is < 5 µM. In addition, the EC50 with HBV is < 1 µM. The CC50 at 6 days in data set [1] was > 100 µM.

For the molecule `Cc1cccc2[nH]c(C(=O)N3CCc4[nH]ncc4C3)cc12` [Example 136, 4-methyl-2-{1H,4H,5H,6H,7H-pyrazolo[4,3-c]pyridine-5-carbonyl}-1H-indole], the half-inhibitory concentration (IC50) on HBV core protein was < 5 µM. Besides, the 50% effective concentration (EC50) with HBV was < 1 µM. Moreover, the CC50 at 6 days in data set [1] was > 100 µM.

In the case of `CON(C)C(=O)c1n[nH]c2c1CN(C(=O)c1cc3ccccc3[nH]1)CC2` [Example 138, 5-(1H-indole-2-carbonyl)-N-methoxy-N-methyl-1H,4H,5H,6H,7H-pyrazolo[4,3-c]pyridine-3-carboxamide], on HBV core protein, the IC50 is < 5 µM. The EC50 with HBV is < 1 µM. Besides, the CC50 at 6 days in data set [1] was > 100 µM.

`CCOC(=O)c1n[nH]c2c1CN(C(=O)c1cc3ccccc3[nH]1)CC2` [Example 140, ethyl 5-(1H-indole-2-carbonyl)-1H,4H,5H,6H,7H-pyrazolo[4,3-c]pyridine-3-carboxylate]: on HBV core protein, the IC50 is < 5 µM. In addition, the EC50 in the data set on HBV is < 100 µM. Also, in data set [1], the CC50 at 6 days was > 100 µM.

Turning to `O=C(c1cc2c(Cl)cc(F)cc2[nH]1)N1CCc2[nH]ncc2C1` [Example 142, 4-chloro-6-fluoro-2-{1H,4H,5H,6H,7H-pyrazolo[4,3-c]pyridine-5-carbonyl}-1H-indole], on HBV core protein, the IC50 is < 5 µM. Moreover, the EC50 in the data set on HBV is < 1 µM. Also, the CC50 at 6 days in data set [1] was > 100 µM.

On to `C[C@H]1CCCCN1C(=O)c1n[nH]c2c1CN(C(=O)c1cc3ccccc3[nH]1)CC2` [Example 147, 2-{3-[(2S)-2-methylpiperidine-1-carbonyl]-1H,4H,5H,6H,7H-pyrazolo[4,3-c]pyridine-5-carbonyl}-1H-indole], for which the half-maximal inhibitory concentration (IC50) on HBV core protein fell in the range of 5 to 10 µM. Also, the EC50 in the data set on HBV is < 1 µM. Besides, the CC50 at 6 days in data set [1] is > 10 µM.

Take `C[C@@H]1CCCCN1C(=O)c1n[nH]c2c1CN(C(=O)c1cc3ccccc3[nH]1)CC2` [Example 148, 2-{3-[(2R)-2-methylpiperidine-1-carbonyl]-1H,4H,5H,6H,7H-pyrazolo[4,3-c]pyridine-5-carbonyl}-1H-indole]: the IC50 on HBV core protein lay in the range of 5 to 10 µM. Besides, the EC50 in the data set with HBV was in the range of 1 to 25 µM. Also, in data set [1], the CC50 at 6 days is > 10 µM.

Consider `CC(=O)NCCN(C)C(=O)c1n[nH]c2c1CN(C(=O)c1cc3ccccc3[nH]1)CC2` [Example 149, N-(2-{1-[5-(1H-indole-2-carbonyl)-1H,4H,5H,6H,7H-pyrazolo[4,3-c]pyridin-3-yl]-N-methylformamido}ethyl)acetamide], for which, on HBV core protein, the IC50 is < 100 µM. Moreover, in the data set with HBV, the EC50 lay in the range of 1 to 25 µM. For the same molecule, the 50% cytotoxic concentration (CC50) at 6 days in data set [1] is > 10 µM.

With `CN(CCS(C)(=O)=O)C(=O)c1n[nH]c2c1CN(C(=O)c1cc3ccccc3[nH]1)CC2` [Example 150, 5-(1H-indole-2-carbonyl)-N-(2-methanesulfonylethyl)-N-methyl-1H,4H,5H,6H,7H-pyrazolo[4,3-c]pyridine-3-carboxamide], the IC50 on HBV core protein was < 100 µM. Besides, the EC50 in the data set with HBV lay within 1 to 25 µM. Also, in data set [1], the CC50 at 6 days is > 10 µM.

For the molecule `O=C(c1cc2ccccc2[nH]1)N1CCc2[nH]nc(C(=O)N3C[C@H]4CCO[C@H]4C3)c2C1` [Example 152, 2-{3-[(3aR,6aR)-hexahydro-2H-furo[2,3-c]pyrrole-5-carbonyl]-1H,4H,5H,6H,7H-pyrazolo[4,3-c]pyridine-5-carbonyl}-1H-indole], the IC50 at HBV core protein was < 100 µM. Moreover, in the data set on HBV, the EC50 was 1 to 25 µM. In addition, the CC50 at 6 days in data set [1] is > 10 µM.

In the case of `O=C(c1cc2ccccc2[nH]1)N1CCc2[nH]nc(C(=O)N3CC4COCC4C3)c2C1` (stereo not drawn) [Example 153, 2-(3-{hexahydro-1H-furo[3,4-c]pyrrole-5-carbonyl}-1H,4H,5H,6H,7H-pyrazolo[4,3-c]pyridine-5-carbonyl)-1H-indole], at HBV core protein, the IC50 was < 100 µM. Also, the EC50 in the data set on HBV fell in the range of 1 to 25 µM. The CC50 at 6 days in data set [1] was > 10 µM.

In the case of `COCC1(N(C)C(=O)c2n[nH]c3c2CN(C(=O)c2cc4ccccc4[nH]2)CC3)CCC1` [Example 154, 5-(1H-indole-2-carbonyl)-N-[1-(methoxymethyl)cyclobutyl]-N-methyl-1H,4H,5H,6H,7H-pyrazolo[4,3-c]pyridine-3-carboxamide], the IC50 on HBV core protein fell in the range of 5 to 10 µM. The EC50 in the data set on HBV is < 1 µM. The CC50 at 6 days in data set [1] was > 10 µM.

With `COCC1(N(C)C(=O)c2n[nH]c3c2CN(C(=O)c2cc4ccccc4[nH]2)CC3)CC1` [Example 155, 5-(1H-indole-2-carbonyl)-N-[1-(methoxymethyl)cyclopropyl]-N-methyl-1H,4H,5H,6H,7H-pyrazolo[4,3-c]pyridine-3-carboxamide], the IC50 on HBV core protein was < 5 µM. Besides, the EC50 with HBV is < 1 µM. The CC50 at 6 days in data set [1] was > 10 µM.

With `O=C(c1cc2ccccc2[nH]1)N1CCc2[nH]nc(C(=O)N3CC[C@@H](O)C3)c2C1` [Example 156, (3R)-1-[5-(1H-indole-2-carbonyl)-1H,4H,5H,6H,7H-pyrazolo[4,3-c]pyridine-3-carbonyl]pyrrolidin-3-ol], the IC50 at HBV core protein was < 100 µM. In addition, in the data set on HBV, the EC50 was in the range of 1 to 25 µM. For the same molecule, in data set [1], the CC50 at 6 days is > 10 µM.

For the origin of these results see US11236087B2, “Highly active pyrazolo-piperidine substituted indole-2-carboxamides active against the hepatitis B virus (HBV)” (AiCuris GmbH & Co. KG, priority 2017, dated 2022).
